The results in this text go back to PubChem BioAssay (NCI).

Some test systems named below: A498 renal; COLO 205 colon; M14 melanoma; MDA-MB-435; NCI-H460 lung; NCI-H522 lung; SK-OV-3 ovarian; SNB-19 CNS.
What all share (assay): inhibition of tumour cell growth, NCI panel, 48 h

“And” between values parts separate entries of the source, which are not always exact repeats. Equal entries are not always repeated.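 Protocol summary: plate cells (96-well), add compound at 5 concentrations, incubate 48 h, interpolate endpoints linearly. GI50 marks 50% less growth. At the TGI there is no net growth.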 Some results are limits rather than exact numbers.

Regarding `N#Cc1c(NCc2ccccc2)nc(NCc2ccccc2)c(C#N)c1-c1ccc(Cl)cc1`, the GI50 in the test with A498 renal is > 50 µM and 33 µM; in the test on COLO 205 colon it was > 50 µM and 76 µM; in the test with M14 melanoma, > 50 µM and 53.5 µM; in the test with MDA-MB-435, > 50 µM and 43.6 µM; with NCI-H460 lung it was > 50 µM and 34.4 µM; with NCI-H522 lung, 31.7 µM. Further, the GI50 is > 100 µM with SK-OV-3 ovarian; > 50 µM and 40.9 µM in the test with SNB-19 CNS. The TGI in the test with A498 renal is > 50 µM and 89.7 µM; in the test on COLO 205 colon, > 100 µM; in the test on M14 melanoma, > 100 µM; with MDA-MB-435, > 100 µM; in the test on NCI-H460 lung it was > 100 µM; with NCI-H522 lung it was > 100 µM. Also, the TGI in the test on SK-OV-3 ovarian and in the test on SNB-19 CNS was > 100 µM each time.
For the compound `COc1cc2c3c(n(CCCN4CCNCC4)c(=O)c2cc1OC)-c1cc2c(cc1C3=O)OCO2`, the GI50 with A498 renal was 0.281 µM; in the test on COLO 205 colon, 3.06 µM; in the test with M14 melanoma, 1.09 µM; in the test on MDA-MB-435, 3.27 µM; in the test on NCI-H460 lung it was 0.00951 µM; in the test with NCI-H522 lung it was 2.18 µM. Also, the GI50 in the test on SK-OV-3 ovarian was 3.35 µM; with SNB-19 CNS it was 0.835 µM. Also, the TGI in the test on A498 renal is 4.44 µM; with COLO 205 colon, 14 µM; in the test on M14 melanoma it was 7.31 µM; in the test with MDA-MB-435, 11.3 µM; in the test with NCI-H460 lung, 2.07 µM; in the test on NCI-H522 lung, 15.7 µM. Besides, the TGI in the test on SK-OV-3 ovarian was determined as 24.8 µM; in the test with SNB-19 CNS, 12.4 µM.
On to `COC(=O)c1ccc2nc(-c3cc4ccccc4n3C)n(CCCCOc3cc4c(cc3OC)C(=O)N3CCC[C@H]3C=N4)c2c1`, for which the GI50 is 0.374 µM in the test with A498 renal; 0.575 µM in the test on COLO 205 colon; 0.713 µM in the test on M14 melanoma; 0.677 µM in the test on MDA-MB-435; 0.561 µM with NCI-H460 lung; 0.291 µM in the test with NCI-H522 lung. The GI50 in the test with SK-OV-3 ovarian was 1.86 µM; in the test with SNB-19 CNS it was 2.15 µM. For the same compound, the TGI in the test with A498 renal was determined as 1.73 µM; in the test with COLO 205 colon, 1.46 µM; in the test on M14 melanoma it was 2.07 µM; in the test with MDA-MB-435, 1.77 µM; in the test on NCI-H460 lung, 1.55 µM; in the test with NCI-H522 lung, 1.1 µM. Besides, the TGI in the test with SK-OV-3 ovarian came to 4.67 µM; with SNB-19 CNS, 7.07 µM.
With `COC(=O)c1cc(NC(=O)c2cc(NC(=O)c3cc([N+](=O)[O-])n(C)c3)cn2C)cn1C`, the GI50 in the test on A498 renal is 84 µM; in the test on COLO 205 colon, 45.9 µM; in the test on M14 melanoma it was 15.2 µM; in the test with MDA-MB-435 it was > 100 µM; in the test with NCI-H460 lung it was > 100 µM; in the test with NCI-H522 lung, 58.9 µM. The GI50 is 45.3 µM in the test with SK-OV-3 ovarian and 34.2 µM in the test on SNB-19 CNS. In addition, the TGI in the test on A498 renal, with COLO 205 colon, with M14 melanoma, in the test on MDA-MB-435, with NCI-H460 lung and with NCI-H522 lung was > 100 µM in each case. Moreover, the TGI with SK-OV-3 ovarian and with SNB-19 CNS was > 100 µM each time.
For `C[C@H](c1ccc(F)cc1CCCC(=O)O)N(c1cc(F)ccc1F)S(=O)(=O)c1ccc(Cl)cc1`, the GI50 in the test on A498 renal is 13.1 µM; with COLO 205 colon, 33.7 µM; in the test with M14 melanoma it was 22.6 µM; in the test with MDA-MB-435 it was 20.6 µM; in the test with NCI-H460 lung it was 20.6 µM; with NCI-H522 lung, 26 µM. The GI50 was 42.3 µM in the test with SK-OV-3 ovarian and 27.9 µM in the test with SNB-19 CNS. Moreover, the TGI was 57.6 µM in the test on A498 renal; > 92.9 µM in the test on COLO 205 colon; > 80.2 µM in the test on M14 melanoma; 51.3 µM in the test with MDA-MB-435; 52.8 µM with NCI-H460 lung; > 93.3 µM in the test on NCI-H522 lung. Moreover, the TGI with SK-OV-3 ovarian and in the test on SNB-19 CNS was > 100 µM in each case.
As to `C[C@@H](N)COc1ccc(-c2cnc3ccc(N[C@H](C)c4cccc(F)c4)nn23)cc1`, the GI50 was 1.52 µM in the test with A498 renal; 1.1 µM with COLO 205 colon; 1.49 µM in the test on M14 melanoma; 1.47 µM in the test on MDA-MB-435; 1.75 µM with NCI-H460 lung; 1.42 µM in the test with NCI-H522 lung. For the same compound, the GI50 in the test on SK-OV-3 ovarian is 5.05 µM; in the test on SNB-19 CNS it was 3 µM. Moreover, the TGI in the test on A498 renal turned out to be 5.58 µM; with COLO 205 colon, 2.96 µM; in the test on M14 melanoma it was 3 µM; in the test with MDA-MB-435, 3.07 µM; with NCI-H460 lung it was 3.88 µM; in the test with NCI-H522 lung, 3.17 µM. Also, the TGI with SK-OV-3 ovarian was determined as 16.9 µM; in the test on SNB-19 CNS, 11.6 µM.
`O=C1Nc2ccccc2/C1=C\c1c(-c2ccccc2)nc2sccn12`: the GI50 in the test with A498 renal is 0.927 µM; in the test with COLO 205 colon, 2.23 µM; in the test with M14 melanoma it was 1.98 µM; in the test with MDA-MB-435 it was 0.354 µM; with NCI-H460 lung, 3.15 µM; in the test on NCI-H522 lung, 1.44 µM. Also, the values for the GI50 in the test with SK-OV-3 ovarian and in the test on SNB-19 CNS were 2.91 µM and 3.53 µM, respectively. Further, the TGI in the test on A498 renal stood at 5.33 µM; in the test with COLO 205 colon, 16.4 µM; with M14 melanoma it was 7.61 µM; in the test on MDA-MB-435, 0.943 µM; with NCI-H460 lung it was 43.9 µM; in the test with NCI-H522 lung it was 14.6 µM. The TGI in the test on SK-OV-3 ovarian was 12.7 µM; with SNB-19 CNS, > 43.7 µM.
For `COC(=O)C12CCC(C)(C)CC1C1=CCC3C4(C)CC(O)C(O)C(C)(C(=O)OC)C4CCC3(C)C1(CO)CC2` (stereo not drawn), the TGI amounted to 33.2 µM with A498 renal; 29.1 µM in the test with COLO 205 colon; 19.5 µM in the test on M14 melanoma; 32.4 µM in the test on MDA-MB-435; 31.5 µM with NCI-H460 lung; 35.2 µM with NCI-H522 lung. For the same compound, the TGI in the test on SK-OV-3 ovarian worked out at 31.3 µM; in the test with SNB-19 CNS, 37 µM.
Regarding `Cc1cc(Cl)nc2ccc(Cc3ccc4nc(Cl)cc(C)c4c3)cc12`, the TGI with A498 renal was 69.1 µM; in the test on COLO 205 colon, > 100 µM; in the test on M14 melanoma, > 100 µM; in the test on MDA-MB-435, > 100 µM; in the test with NCI-H460 lung, > 100 µM; in the test on NCI-H522 lung, > 100 µM. Besides, the TGI in the test on SK-OV-3 ovarian was 47.1 µM; with SNB-19 CNS, > 100 µM.
